Laboratory results taken from publication PMC6155021, “Ancient and modern anticonvulsants act synergistically in a KCNQ potassium channel binding pocket” (Nature Communications, 2018).

Tests used:
[1] = biological target: W236L-Q2/Q3 channels (Homo sapiens, UniProt O43525+O43526, W236L); assay: Two-electrode voltage-clamp of W236L-Q2/Q3 mutant channels in Xenopus oocytes; type: cell-based; conditions: for Non-normalized tail current V0.5 / Normalized tail current V0.5 / Slope: W236L-Q2/Q3
Text: (§1) cRNA transcripts encoding human KCNA1, KCNQ1, KCNQ2, KCNQ3, KCNQ4, or KCNQ5 were generated by in vitro transcription using the T7 polymerase message machine kit (Thermo Fisher Scientific), after vector linearization, from cDNA sub-cloned into plasmids incorporating X. laevis β-globin 5′ and 3′ UTRs flanking the coding region to enhance translation and cRNA stability. cRNA was quantified by spectrophotometry. Mutant cDNAs were generated by site-directed mutagenesis using a QuikChange kit according to manufacturer’s protocol (Stratagene, San Diego, CA) and corresponding cRNAs prepared as above. Defolliculated stage V and VI X. laevis oocytes (Ecocyte Bioscience, Austin, TX) were injected with Kv channel α subunit cRNAs (10 ng total per oocyte). Oocytes were incubated at 16 °C in Barth’s saline solution (Ecocyte) containing penicillin and streptomycin, with daily washing, for 3–5 days prior to two-electrode voltage-clamp (TEVC) recording.
(§2) Oocytes were placed in a small-volume oocyte bath (Warner) and viewed with a dissection microscope. Chemicals were sourced from Sigma. Bath solution was (in mM): 96 NaCl, 4 KCl, 1 MgCl2, 1 CaCl2, 10 HEPES (pH 7.6). […] MTX (DMSO), sorbic acid (ethanol), and glutaconic acid (molecular grade H2O) were stored at −20 °C as 1 M stocks. Oleamide was stored as a 1 mM stock in ethanol at 4 °C. Palmitic acid was conjugated with bovine serum albumin as a 1 mM stock and stored at −20 °C. All compounds were diluted to working concentrations each experimental day. All compounds were introduced to the recording bath via gravity perfusion at a constant flow of 1 ml/min for 3 min prior to recording. Pipettes were of 1–2 MΩ resistance when filled with 3 M KCl. Currents were recorded in response to pulses between −80 and +40 mV at 20 mV intervals, or a single pulse to +40 mV, from a holding potential of −80 mV, to yield current–voltage relationships, current magnitude, and for quantifying activation rate. TEVC data analysis was performed with Clampfit10.2 (Molecular Devices) and Graphpad Prism software (GraphPad, San Diego, CA, USA); values are stated as mean ± SEM. Normalized tail currents were plotted versus prepulse voltage and fitted with a single Boltzmann function:1 g=A1-A2/1+expV12-Vy+A2, where g is the normalized tail conductance, A1 is the initial value at −∞, A2 is the final value at +∞, V1/2 is the half-maximal voltage of activation, and Vs the slope factor. Activation and deactivation kinetics were fitted with single-exponential functions.

[2] = test system: pentylene tetrazole-induced seizures; assay: PTZ chemoconvulsant assay; type: in vivo, mouse; conditions: mice
Text: We compared anticonvulsant activities of test compounds in male C57BL/6 mice (Charles River) aged 2–3 months. Mice were housed and used according to the recommendations in the Guide for the Care and Use of Laboratory Animals of the National Institutes of Health (NIH Publication, 8th edition, 2011). The study protocol was approved by the Institutional Animal Care and Use Committee of University of California, Irvine, which confirmed that all relevant ethical regulations were adhered to. Chemicals were sourced from Sigma (St. Louis, MO, USA) . A pentylene tetrazole (PTZ) chemoconvulsant assay was used[54]. […] Following the PTZ injection, mice were caged individually and an observer (GWA) blinded to the drug used recorded, over 20 min, clonic and tonic seizure incidence, and seizure-related mortality.
All values are expressed as mean ± SEM. Chi-squared analysis was used to compare seizure-related mortality in mice. One-way ANOVA was applied for all other tests; if multiple comparisons were performed, a post-hoc Tukey’s HSD test was performed following ANOVA. All p-values were two-sided. Statistical significance was defined as p < 0.05.

[3] = biological target: Q2/W265L-Q3 channels (Homo sapiens, UniProt O43525+O43526, W265L); assay: Two-electrode voltage-clamp of Q2/W265L-Q3 mutant channels in Xenopus oocytes; type: cell-based; conditions: for Non-normalized tail current V0.5 / Normalized tail current V0.5 / Slope: Q2/W265L-Q3
Q2/W265L-Q3 channels, sequence (O43526 whole entry): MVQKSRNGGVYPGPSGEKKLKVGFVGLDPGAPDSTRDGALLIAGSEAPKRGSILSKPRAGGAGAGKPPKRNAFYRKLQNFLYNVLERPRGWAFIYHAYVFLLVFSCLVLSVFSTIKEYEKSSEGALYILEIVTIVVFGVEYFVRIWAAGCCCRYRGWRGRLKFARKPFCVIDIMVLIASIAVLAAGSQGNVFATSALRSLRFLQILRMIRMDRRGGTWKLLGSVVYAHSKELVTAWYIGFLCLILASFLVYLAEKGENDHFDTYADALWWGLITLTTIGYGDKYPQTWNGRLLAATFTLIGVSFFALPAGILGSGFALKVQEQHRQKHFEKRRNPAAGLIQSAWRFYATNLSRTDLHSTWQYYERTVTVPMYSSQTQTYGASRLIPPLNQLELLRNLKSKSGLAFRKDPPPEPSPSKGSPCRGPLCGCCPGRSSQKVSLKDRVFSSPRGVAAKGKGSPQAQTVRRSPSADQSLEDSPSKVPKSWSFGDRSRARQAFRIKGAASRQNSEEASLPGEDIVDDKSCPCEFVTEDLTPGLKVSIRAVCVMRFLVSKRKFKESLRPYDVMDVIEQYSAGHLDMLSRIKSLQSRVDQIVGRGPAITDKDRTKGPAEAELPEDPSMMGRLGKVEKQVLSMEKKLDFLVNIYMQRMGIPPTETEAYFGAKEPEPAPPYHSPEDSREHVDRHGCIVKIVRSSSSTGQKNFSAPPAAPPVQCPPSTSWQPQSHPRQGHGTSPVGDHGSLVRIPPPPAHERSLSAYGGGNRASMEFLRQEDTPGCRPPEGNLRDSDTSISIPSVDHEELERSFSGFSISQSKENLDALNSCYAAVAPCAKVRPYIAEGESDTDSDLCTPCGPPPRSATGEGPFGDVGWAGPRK
Q2/W265L-Q3 channels, sequence (O43525 whole entry W265L): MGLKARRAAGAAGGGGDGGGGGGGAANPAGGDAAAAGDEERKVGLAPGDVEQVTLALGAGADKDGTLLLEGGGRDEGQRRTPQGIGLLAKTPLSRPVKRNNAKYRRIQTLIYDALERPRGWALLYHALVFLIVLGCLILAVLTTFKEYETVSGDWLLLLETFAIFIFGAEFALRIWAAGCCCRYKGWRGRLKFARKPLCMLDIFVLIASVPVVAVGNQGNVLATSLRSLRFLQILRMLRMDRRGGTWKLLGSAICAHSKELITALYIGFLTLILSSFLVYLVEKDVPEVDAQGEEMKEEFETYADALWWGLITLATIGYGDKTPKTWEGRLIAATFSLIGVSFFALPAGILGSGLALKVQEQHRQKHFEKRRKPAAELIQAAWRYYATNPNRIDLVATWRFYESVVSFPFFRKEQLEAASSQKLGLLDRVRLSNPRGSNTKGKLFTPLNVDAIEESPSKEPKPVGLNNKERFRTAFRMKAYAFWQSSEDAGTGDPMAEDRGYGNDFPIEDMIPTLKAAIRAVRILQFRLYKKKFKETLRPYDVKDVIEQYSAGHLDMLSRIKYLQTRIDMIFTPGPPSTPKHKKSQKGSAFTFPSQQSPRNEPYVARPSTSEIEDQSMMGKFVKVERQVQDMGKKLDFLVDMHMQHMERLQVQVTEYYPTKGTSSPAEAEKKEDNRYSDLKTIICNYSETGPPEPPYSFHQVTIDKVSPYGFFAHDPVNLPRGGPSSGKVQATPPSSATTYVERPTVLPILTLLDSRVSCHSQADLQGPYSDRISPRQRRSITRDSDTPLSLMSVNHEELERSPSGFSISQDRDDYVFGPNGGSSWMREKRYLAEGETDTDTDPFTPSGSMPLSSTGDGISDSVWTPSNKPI
Text: as §1, §2

[4] = rats fed Mallotus philippensis extract; cited from earlier work

W236L-Q2/Q3 channels, sequence (O43525 whole entry): as the sequence (O43525 whole entry W265L) above, with L265W counted along it
W236L-Q2/Q3 channels, sequence (O43526 whole entry W236L): as the sequence (O43526 whole entry) above, with W236L counted along it

CC(=O)c1c(O)c(C)c(O)c(Cc2c(O)c3c(c(C(=O)/C=C/c4ccccc4)c2O)OC(C)(C)C=C3)c1O [MTX, mallotoxin]
EC50 ([1]; EC50, W236L-Q2/Q3, calculated from dose responses): 27 ± 0.6 µM | EC50 ([1]; V0.5 EC50, W236L-Q2/Q3, calculated from shift in V0.5): 37.3 ± 0.2 µM | Non-normalized tail current V0.5 ([1]; 1 µM): -55.7 ± 1.9 mV | Normalized tail current V0.5 ([1]; 1 µM): -57.1 ± 0.9 mV | Slope ([1]; 1 µM): 6.0 ± 0.7 mV | Non-normalized tail current V0.5 ([1]; 3 µM): -55.4 ± 2.1 mV | Normalized tail current V0.5 ([1]; 3 µM): -57.8 ± 1.3 mV | Slope ([1]; 3 µM): 3.9 ± 2.2 mV | Non-normalized tail current V0.5 ([1]; 10 µM): -57.3 ± 2.7 mV | Normalized tail current V0.5 ([1]; 10 µM): -58.1 ± 0.9 mV | Slope ([1]; 10 µM): 6.2 ± 0.7 mV | Non-normalized tail current V0.5 ([1]; 30 µM): -61.9 ± 3.9 mV | Normalized tail current V0.5 ([1]; 30 µM): -62.4 ± 1.3 mV | Slope ([1]; 30 µM): 6.6 ± 0.9 mV | Non-normalized tail current V0.5 ([1]; 100 µM): -67.9 ± 7.7 mV | Normalized tail current V0.5 ([1]; 100 µM): -71.4 ± 4.5 mV | Slope ([1]; 100 µM): 6.8 ± 1.2 mV | clonic seizure incidence ([2]; 10 mg/kg i.p. alone): neither compound reduced clonic seizures alone | clonic seizure incidence ([2]; 20 mg/kg i.p., 30 min before 80 mg kg−1 PTZ): halved | suppression of PTZ-induced tonic seizures ([2]; individually): ineffective | EC50 ([3]; EC50, Q2/W265L-Q3, calculated from dose responses): 70 ± 0.6 µM | Non-normalized tail current V0.5 ([3]; 1 µM): -51.3 ± 11.3 mV | Normalized tail current V0.5 ([3]; 1 µM): -45.7 ± 2.9 mV | Slope ([3]; 1 µM): 7.9 ± 1.7 mV | Non-normalized tail current V0.5 ([3]; 3 µM): -52.7 ± 10.5 mV | Normalized tail current V0.5 ([3]; 3 µM): -49.2 ± 2.6 mV | Slope ([3]; 3 µM): 7.9 ± 1.8 mV | Non-normalized tail current V0.5 ([3]; 10 µM): -54.0 ± 9.7 mV | Normalized tail current V0.5 ([3]; 10 µM): -51.8 ± 2.4 mV | Slope ([3]; 10 µM): 7.6 ± 1.4 mV | Non-normalized tail current V0.5 ([3]; 30 µM): -58.0 ± 8.3 mV | Normalized tail current V0.5 ([3]; 30 µM): -56.3 ± 2.2 mV | Slope ([3]; 30 µM): 7.4 ± 1.6 mV | Non-normalized tail current V0.5 ([3]; 100 µM): -63.7 ± 11.2 mV | Normalized tail current V0.5 ([3]; 100 µM): -61.8 ± 2.2 mV | Slope ([3]; 100 µM): 6.6 ± 2.1 mV | EC50 ([3]; V0.5 EC50, Q2/W265L-Q3, calculated from shift in V0.5): 13.7 ± 0.3 µM | Oral bioavailability [4]: > 20% | plasma concentrations [4]: exceeded 2 µg/ml
